The record followed here is patent US11413280B2 (The Board of Trustees of the Leland Stanford Junior …, priority 2017, dated 2022).

Assay type in all cases: cell-based, human
For experiment [1], the system named is PAEC. Kind of experiment: γH2AX staining (DNA damage). To be noted: siBMPR2 and siFHIT PAEC, 10 μM Enzastaurin for 24 hours. Here is the method:
(§1) Assays were conducted according to the manufacturer's instructions and as previously described(E1,E9).
(§2) Quantified area=% of cells that show nuclear γH2AX staining quantified with automated software (white nuclei=positive stain, grey nuclei=background stain). […] (n=3). […] (n=3).
(§3) As a cumulative viability measurement, we quantified caspase3/7 activity, using the luminescent Caspase-Glo®3/7 assay(36) and DNA damage, using histone H2AX phosphorylation by immunofluorescence and quantification as nuclear area staining (%) by confocal microscopy(34, 35, 37). […] PAEC proliferation was assessed via an MTT proliferation assay and hemocytometer cell counts(36).

The subject of experiment [2] is PAEC. Kind of experiment: Matrigel tube formation assay. The settings on record: FHIT- and BMPR2-deficient PAECs, 15 μM Enzastaurin for 24 hours. Here is the method: as §1
Quantified area=% of cells that show nuclear γH2AX staining quantified with automated software (white nuclei=positive stain, grey nuclei=background stain). […] FIGS. 9G-9H, MTT proliferation assay in Enzastaurin-treated (0.5-50 M) in PASMC and PAEC, respectively. (n=3). FIGS. 9I-9J, MTT proliferation assay in Enzastaurin-treated (5 M) siFHIT and siBMPR2 transfected PASMC compared to Ntsi control, respectively. (n=3).
Loss of FHIT and BMPR2 impaired PAECs tube formation 6 hours after cells were seeded in a Matrigel tube formation assay(12) compared to cells treated with control Ntsi (FIG. 9A, FIG. 9B).

Experiment [3] concerns PAEC. Kind of experiment: MTT proliferation assay in PAEC. The settings on record: Enzastaurin 0.5-50 M as printed. Here is the method:
as §1, §2, §3

For another experiment, the system named is miR17-5. As to the kind of experiment: Relative miR17-5 expression in PAECs (qPCR). To be noted: 15 μM Enzastaurin 24 hours.
Another experiment deals with BMPR2. Kind of experiment: Relative BMPR2 mRNA expression in PAECs (qPCR). To be noted: PAEC, 24 hours, low doses (5-15 uM), FIG. 14. Here is the method:
Human PAEC (Promocell) or human PASMC (Promocell) were grown as monolayers in gelatin-coated dishes in a commercial EC (Promocell) or SMC (Promocell) media, respectively. Cells were passaged at 1:3 ratios and used for experiments from passages 3-8. Transformed lymphocytes (i.e., lymphoblasts) were cultured in RPMI 1640 with 10-15% FBS.
FHIT expression was modulated by RNAi in PA endothelial cells (PAEC). A pool of 4 siRNAs for BMPR2, FHIT, LCK or a non-targeting control pool (Dharmacon) were transfected into PAECs using the RNAi Max kit (Invitrogen) for 48 hours. mRNA knockdown efficiency was determined by qPCR.
For mRNA, total RNA was extracted from whole lung tissue using the RNAeasy Plus Kit (Qiagen) and reverse transcribed into cDNA using random primers with the Taqman cDNA reverse transcription Kit (Applied Biosciences) according to the manufacturer's instructions. For miR, total miR was isolated from whole lung tissue using the Taqman miRNA ABC purification Kit (Applied Biosciences) and was reverse transcribed using specific primers and the Taqman microRNA reverse transcription kit (Applied Biosciences). mRNA and miR expression levels were quantified using Taqman primer/probe sets for the target and normalized to a housekeeping control (mRNA: GAPDH; miR: RNU48). […]

Molecules are shown by their SMILES.

For `Cn1cc(C2=C(c3cn(C4CCN(Cc5ccccn5)CC4)c4ccccc34)C(=O)NC2=O)c2ccccc21` [Enzastaurin, 3-(1-methyl-1H-indol-3-yl)-4-[1-[1-(pyridin-2-ylmethyl)piperidin-4-yl]-1H-indol-3-yl]-1H-pyrrole-2,5-dione], the “DNA damage (nuclear γH2AX staining) induced by FHIT or BMPR2-loss” value in the experiment on PAEC [1] is reported as “significantly attenuated”. Further, in the experiment with PAEC [2], the “Defects in tube formation” value is given as “fully reversed the defects in tube formation”. Also, in the experiment on PAEC [3], the “PAEC proliferation (MTT)” value was “no increase in PAEC proliferation was detected”. For the same compound, the “siFHIT-mediated increase in miR17-5 expression” value in the experiment with miR17-5 was “inhibited”. In addition, the “BMPR2 expression at low doses in vitro” value in the experiment on BMPR2 is reported as “increased”.
